According to patent US20240199587A1, “HETEROCYCLIC COMPOUNDS” (Hoffmann-La Roche Inc., priority 2021, published 2024):

Target: T1, MAGL (Homo sapiens, UniProt Q99685)
T1 sequence (Q99685 1-303): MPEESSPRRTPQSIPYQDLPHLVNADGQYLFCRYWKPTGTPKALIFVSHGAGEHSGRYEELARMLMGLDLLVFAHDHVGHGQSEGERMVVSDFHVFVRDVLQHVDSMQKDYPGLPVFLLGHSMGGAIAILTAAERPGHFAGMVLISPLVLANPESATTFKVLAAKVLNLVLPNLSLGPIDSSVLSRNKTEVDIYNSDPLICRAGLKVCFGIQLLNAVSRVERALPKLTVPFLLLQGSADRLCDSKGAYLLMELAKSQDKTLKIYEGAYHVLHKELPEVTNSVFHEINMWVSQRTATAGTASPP
Assay: 2-AG assay (MAGL inhibitory activity, hydrolysis of 2-arachidonoylglycerol to arachidonic acid followed by mass spectrometry)
Type: biochemical
Settings: 8 μM 2-arachidonoylglycerol, 15 min pre-incubation, 30 min incubation at RT, RapidFire MS readout
Method in brief: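 Arachidonic acid released from 8 μM 2-arachidonoylglycerol was quantified by online SPE triple-quadrupole MS (negative ESI, 303.1→259.1), normalised to d8-arachidonic acid internal standard. Reaction ran 30 min at RT after 15 min RT compound pre-incubation with […] MAGL in TRIS/EDTA/Tween-20 buffer, 2.5% DMSO.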

IC50 [nM] | SMILES
1.69 | O=C(N1CC(OCc2cccc(S(=O)(=O)C(F)(F)F)c2)C1)N1CC2(CC(n3cnc(C4CC4)n3)C2)C1 [Example 498, [6-(3-cyclopropyl-1,2,4-triazol-1-yl)-2-azaspiro[3.3]heptan-2-yl]-[3-[[3-(trifluoromethylsulfonyl)phenyl]methoxy]azetidin-1-yl]methanone]
4.38 | O=C(N1CC(OCc2ccc(S(=O)(=O)C(F)(F)F)cc2)C1)N1CC2(CC(n3cnc(C4CC4)n3)C2)C1 [Example 499, [6-(3-cyclopropyl-1,2,4-triazol-1-yl)-2-azaspiro[3.3]heptan-2-yl]-[3-[[4-(trifluoromethylsulfonyl)phenyl]methoxy]azetidin-1-yl]methanone]
39.6 | CS(=O)(=O)c1ccc(CN2CC3(C2)CN(C(=O)N2CC4(CC(n5cnc(C6CC6)n5)C4)C2)C3)cc1 [Example 500, [6-(3-cyclopropyl-1,2,4-triazol-1-yl)-2-azaspiro[3.3]heptan-2-yl]-[6-[(4-methylsulfonylphenyl)methyl]-2,6-diazaspiro[3.3]heptan-2-yl]methanone]
6.74 | CS(=O)(=O)c1cccc(CN2CC3(C2)CN(C(=O)N2CC4(CC(n5cnc(C6CC6)n5)C4)C2)C3)c1 [Example 501, [6-(3-cyclopropyl-1,2,4-triazol-1-yl)-2-azaspiro[3.3]heptan-2-yl]-[6-[(3-methylsulfonylphenyl)methyl]-2,6-diazaspiro[3.3]heptan-2-yl]methanone]
12.1 | CS(=O)(=O)c1ccccc1CN1CC2(C1)CN(C(=O)N1CC3(CC(n4cnc(C5CC5)n4)C3)C1)C2 [Example 502, [6-(3-cyclopropyl-1,2,4-triazol-1-yl)-2-azaspiro[3.3]heptan-2-yl]-[6-[(2-methylsulfonylphenyl)methyl]-2,6-diazaspiro[3.3]heptan-2-yl]methanone]
1.53 | NC(=O)C1CC(F)(F)CCN1c1ccc(C2CN(C(=O)N3CC4(CC(n5cnc(C6CC6)n5)C4)C3)C2)cc1 (centres unmarked) [Example 503, 1-[4-[1-[6-(3-cyclopropyl-1,2,4-triazol-1-yl)-2-azaspiro[3.3]heptane-2-carbonyl]azetidin-3-yl]phenyl]-4,4-difluoro-piperidine-2-carboxamide]
13.9 | CC1(O)CN(c2ccc(C3CN(C(=O)N4CC5(CC(n6cnc(C7CC7)n6)C5)C4)C3)cn2)C1 [Example 504, [6-(3-cyclopropyl-1,2,4-triazol-1-yl)-2-azaspiro[3.3]heptan-2-yl]-[3-[6-(3-hydroxy-3-methyl-azetidin-1-yl)-3-pyridyl]azetidin-1-yl]methanone]
32.3 | O=C(N1CC(c2ccc(NC3CCS(=O)(=O)C3)nc2)C1)N1CC2(CC(n3cnc(C4CC4)n3)C2)C1 (centres unmarked) [Example 505, [6-(3-cyclopropyl-1,2,4-triazol-1-yl)-2-azaspiro[3.3]heptan-2-yl]-[3-[6-[(1,1-dioxothiolan-3-yl)amino]-3-pyridyl]azetidin-1-yl]methanone]
75.6 | O=C(N1CCC(Oc2cccc(F)c2)CC1)N1CC2(CC(n3cnc(C4CC4)n3)C2)C1 [Example 506, [6-(3-cyclopropyl-1,2,4-triazol-1-yl)-2-azaspiro[3.3]heptan-2-yl]-[4-(3-fluorophenoxy)-1-piperidyl]methanone]
0.51 | O=C(N1CC(c2ccc(C3CCC3)cc2)C1)N1CC2(CC(n3cnc(C4CC4)n3)C2)C1 [Example 507, [3-(4-cyclobutylphenyl)azetidin-1-yl]-[6-(3-cyclopropyl-1,2,4-triazol-1-yl)-2-azaspiro[3.3]heptan-2-yl]methanone]
651 | Cc1cccc(F)c1CCC1CN(C(=O)N2CC3(CC(n4cnc(C5CC5)n4)C3)C2)C1 [Example 508, [6-(3-cyclopropyl-1,2,4-triazol-1-yl)-2-azaspiro[3.3]heptan-2-yl]-[3-[2-(2-fluoro-6-methyl-phenyl)ethyl]azetidin-1-yl]methanone]
